Source: US20230390248A1, “COMPOSITION FOR ENHANCING TUMOR PENETRATION OF ANTICANCER DRUG, COMPRISING LOSARTAN AS ACTIVE INGREDIENT, AND USE THEREOF” (priority 2020, published 2023)

How the values were obtained:
Format in all cases: in vivo, BALB/c nude mice
hyaluronan = assay: Hyaluronan staining (alcian blue) in gastric cancer tissue; conditions: gastric cancer tumor tissue; versus control; FIG. 3B
Method: Hyaluronan staining was performed using alcian blue stain kit (Vector laboratories, Burlingame, CA 94010, Alcian Blue (pH 2.5), Stain kit, H-3501). The tissues were sectioned to a thickness of 20 μm. The sections were washed with water to remove excess OCT. Acetic acid was treated to tissue sections for 3 minutes, and then Alcian blue solution was treated at 37° C. for 30 minutes. Excess staining was removed by washing with acetic acid. It was then washed with tap water for 2 minutes and then with distilled water for 1-2 minutes. In addition, the nuclear fast red solution was treated for 5 minutes, and washing was followed with tap water and then with distilled water. The slides were dehydrated in graded alcohol and removed from xylene, and then a cover slip was mounted. The slides were visualized, and images were filmed with Olympus BX53 system microscope (Olympus, life science solution, Waltham, Massachusetts (02453)).

collagen = assay: Masson trichrome staining of collagen in gastric cancer tissue; conditions: gastric cancer tumor tissue; versus control; FIG. 3A
Method: Masson trichrome staining was performed for histological visualization of collagen, an extracellular component, which is considered as a disorder when TRZ travels. Tumor tissues were obtained by sacrificing animals. The obtained tissues were fixed overnight in 4% paraformaldehyde and transferred to OCT compounds (Sakura Finetec, USA). The tissues were sectioned to a thickness of 40 μm. Staining was performed according to the kit protocol (Abcam (www.abcam.com) ab150686).
Bouin's Fluid was applied to each section and cultured overnight at room temperature. The slides were washed with water, cultured in Weigert's iron hematoxylin for 5 minutes, then washed with tap water, and cultured in Biebrich scarlet/acid fuchsin solution for […]. Without washing, the slides were re-cultured with aniline blue for 30 minutes. The slides were then washed with water and cultured in acetic acid for 3-5 minutes.
It was also dehydrated in graded alcohol, washed in xylene, and then mounted to a class slide using a mounting medium. The slides were visualized, and images were filmed with the Olympus BX53 system microscope (Olympus, life science solution, Waltham, Massachusetts (02453)).

gastric cancer (NCI-N87) = assay: Treatment efficacy of combined RIT using losartan and ^64Cu-TRZ; conditions: compared to the control (PBS); losartan 60 mg/kg s.c. for 25 days; FIG. 5A
Method: To identify gastric cancer (NCI-N87) treatment efficacy of the combined therapy using losartan and trastuzumab, the groups were classified into ^64Cu-TRZ treated group (n=7), losartan-included ^64Cu-TRZ treated group (n=7), losartan solely treated group (n=6), TRZ solely treated group (n=6), and PBS treated group (n=8). […] Losartan was delivered subcutaneously (60 mg/kg for 25 days), and TRZ (150 μg) was injected intravenously once at the start of treatment.

CCCCc1nc(Cl)c(CO)n1Cc1ccc(-c2ccccc2-c2nn[nH]n2)cc1 [losartan]
hyaluronan (alcian blue staining) (hyaluronan): reduced hyaluronan | collagen (masson trichrome staining) (collagen): reduced collagen | tumor growth response (gastric cancer (NCI-N87)): tumoricidal response
